# Test results: a melting point compilation (Tetko et al.; mined from patent text by program, amines drawn as free bases though some values may be those of a salt)
row,melting point,Structure (SMILES)
1,230 °C,N#Cc1ccc(C(=O)N[C@H]2CC[C@H](CCN3CCC(c4cccc5c4CCO5)CC3)CC2)cc1
2,189 to 193 °C,CCCCc1nc2c(N)nc3ccc(OCCC4CCN(C(=O)C(C)C)CC4)cc3c2n1C
3,65 to 66 °C,Cc1cc(C)cc(C(=O)OC2CCCCC2=O)c1 (stereo not drawn)
4,175 °C,CC(C)=CC(=S)Nc1ccccc1
5,140 to 141 °C,NS(=O)(=O)c1ccc(-n2nc(C(F)(F)F)cc2-c2ccc(Cl)cc2)cc1F
6,195 to 199 °C,CNC(=O)CC(SC(C)=O)C(CC(C)C)C(=O)NC(Cc1ccc(OC)cc1)C(=O)NC (stereo not drawn)
7,149 °C,COc1ccccc1NC(=O)Nc1nc(NC(CC(=O)O)c2ccccc2)nc(Oc2ccc3ccccc3c2)n1 (stereo not drawn)
8,168 to 172 °C,Cc1ccc(N2C(=O)C=CC2=O)cc1N1C(=O)C=CC1=O
9,103 to 104 °C,CC(=O)N(C)CC(c1ccc(Cl)cc1)c1ccc(Cl)cc1
10,121 to 122 °C,O=C1CCN(Cc2ncccc2O)CC1C(c1ccccc1)c1ccccc1 (stereo not drawn)
11,> 300 °C,Cc1ccc(N2C(=O)C(O)=C(C(=O)c3ccc(OC(F)(F)F)cc3)C2c2ccc(Cn3cnnn3)cc2)nn1 (stereo not drawn)
12,148 to 150 °C,COC(=O)Cc1ccccc1NC(=S)N(C)NC(=O)c1ccccc1
13,213 °C,CC(C)n1nc(-c2cnc(N)nc2-c2cccs2)ccc1=O
14,174 to 175 °C,COc1ccc(-n2c(=O)cc(OC(C)=O)c3ccccc32)cc1
15,216 to 220 °C,CC(=O)NC[C@H]1CN(c2ccc(C(=O)c3cnc4cnc(Br)cn34)cc2)C(=O)O1
16,160 to 161 °C,CCCC(=O)Oc1ccc(S(=O)(=O)CS(N)(=O)=O)cc1
17,78 to 80 °C,CC1CN(c2cccc(F)c2)N=C1N (stereo not drawn)
18,82 to 83 °C,CCOc1ccc(OCc2ccc(OCc3nc(-c4ccccc4)oc3C)cc2)cc1CC(=O)OC
19,100 to 102 °C,CCCCCCCN(CC)C(=O)CCC(=O)c1ccc(NS(C)(=O)=O)cc1
20,133 to 135 °C,O=C1CCc2c(-c3ccncc3)sc(-c3ccccc3F)c21
21,244 to 245 °C,Cc1nnc(-c2ccnc(Nc3ccc(S(C)(=O)=O)cc3)c2)o1
22,119 to 121 °C,CSc1ccc(C)cc1S(=O)(=O)NC(C)(C)C
23,103 to 104 °C,CN1CCC(c2c[nH]c3ccc(C(=O)c4ccc(N(C)C)cc4)cc23)CC1

row,melting point,Structure (SMILES)
1,165 to 166 °C,COC(=O)c1c(Cl)cc(Cl)cc1NC(=O)CSc1ccccc1C(=O)O
2,146 to 148 °C,Cc1cc(C(Cl)=NNc2ccccc2)ccc1[N+](=O)[O-]
3,122 to 124 °C,CN(C)c1ccc2c(c1)CNC2=O
4,172 to 174 °C,O=C(O)C(=O)CC(=O)c1cn(Cc2ccccc2F)c2ccccc2c1=O
5,125 °C,CC(=O)OCC(=O)C1(O)C(C)CC2C3CCC4CC(=O)CCC4(C)C3CCC21C (stereo not drawn)
6,114 to 116 °C,Cc1cnnc(-c2cccc(C(F)(F)F)c2)c1
7,130 to 131 °C,CC(C)c1nn(-c2ccc(C(F)(F)F)cn2)cc1CCCCOc1ccc(CC(=O)O)cc1
8,172 °C,CC(=O)OC1CSC(Oc2ccc(-c3c(C)noc3C)nc2)C(OC(C)=O)C1OC(C)=O (stereo not drawn)
9,172 to 173 °C,COc1cc(C2(OC)CCOCC2)ccc1OCc1ccc2c(ccc(=O)n2C)c1
10,81 °C,Cc1nn(C(=O)NC(C)C)c(=O)n1C
11,67 to 69 °C,CCOC(=O)C(C(=O)OCC)n1cccc1C(=O)C(Cl)(Cl)Cl
12,187 to 189 °C,CCn1c(-c2c(Cl)cccc2Cl)nc(-c2ccnc(Cl)c2)c1-c1ccc(Cl)cc1
13,34 to 36 °C,COCc1cc(Cl)ncn1
14,160 °C,COc1cc(-c2cccc3ccccc23)nc(N)n1
15,209 °C,C=CCn1cc(C(=O)O)c(=O)c2cc(F)c(N3CCN(Cc4ccccc4)CC3)cc21
16,194 to 196 °C,CC(=Cc1ccc(C(=O)O)cc1)c1ccc2c(c1)N(C)CCC2(C)C
17,154 °C,O=C(C(c1ccc(Cl)cc1)c1c(Cl)cc(-n2ncc(=O)[nH]c2=O)cc1Cl)N1CCCC1 (stereo not drawn)
18,234 to 238 °C,CC1CC(=O)NN=C1c1ccc(N)c([N+](=O)[O-])c1 (stereo not drawn)
19,> 310 °C,O=C(O)C1CCN(c2ccc3nc4[nH]c(=O)[nH]c4cc3c2)CC1
20,151 to 152 °C,CN(C)Cc1ccc(CSCCNC2=NS(=O)(=O)N=C2N2CCCC2)o1
21,151 to 153 °C,O=C1N(Cc2ccccc2)C(O)C2CSC(c3ccccc3)N12 (mixture of isomers)
22,167 to 168 °C,CCCOc1ccc(/C=C/C(=O)OC(C)(C)C)cc1-c1nc2c(CCC)nn(C)c2c(=O)[nH]1
23,178 to 179 °C,Cc1nc(-c2cccs2)c2nc(-c3ccccc3)cc-2[nH]1

row,melting point,Structure (SMILES)
1,145 °C,CCCCN1CC2CN(S(=O)(=O)c3ccc(NC(=O)c4ccc(C#N)cc4)cc3)CC(C1)C2(C)C
2,260 to 262 °C,CCOC(=O)c1ccc(NC(=O)N2CCn3c(c(C(N)=O)c(Cl)c3-c3ccccc3)C2)cc1
3,93 to 96 °C,CON=C(C1=NOCCO1)c1ccccc1CCl
4,156 to 158 °C,Cc1nc[nH]c1CSCCCNC(=N)N
5,215 to 216 °C,CS(=O)(=O)c1ccc(-n2cnc3ccc(-c4nnc(C5CC5)o4)cc32)cc1
6,164 to 181 °C,COc1ccc(-c2nc(C(=O)O)cc(Cl)c2Cl)cc1
7,162 to 164 °C,COCCOc1ccc(-c2sc(N)c(C(=O)c3ccc(Cl)cc3)c2CN(C2CCCCC2)C2CCCCC2)cc1
8,227 °C,CS(=O)(=O)c1ccc(-c2oc(CO)cc(=O)c2Oc2ccc(Cl)cc2)cc1
9,100 to 101 °C,O=CC(Cl)=Cc1cccc(Oc2ccc([N+](=O)[O-])c([N+](=O)[O-])c2)c1
10,287 °C,O=C(C=Cc1cccs1)Nc1nnn[nH]1
11,158 to 160 °C,COc1ccc(CCOc2ccc(NC(=O)c3cc(F)cc(N4CCCCC4)c3)c3ccccc23)cc1OC
12,224 °C,CCOC(=O)C1=C(C)Nc2nc(N)nc(N)c2C1c1cccnc1 (stereo not drawn)
13,63 to 66 °C,CN1C(=O)C(c2ccc(OC(F)F)cc2)(c2cccc(CCCCO)c2)N=C1N (stereo not drawn)
14,153 to 155 °C,COC(=O)C1CCC2C3CCC4CC5OC5CC4(C)C3C(NC(=O)OCC(Cl)(Cl)Cl)CC12C (stereo not drawn)
15,67 to 69 °C,Fc1ccc(C(=C(c2ccccc2)c2ccc(OCCN3CCOCC3)cc2)C(F)(F)F)cc1
16,65 to 67 °C,Fc1cc(Br)cc(OCc2ccc3ccccc3c2)c1
17,74 to 75 °C,CC(O)(CCO)c1ccc(Oc2ccccc2)cc1 (stereo not drawn)
18,95 to 98 °C,Cc1cc(C)cc(C(=O)N[C@H](Cc2ccccc2)C(=O)N[C@@H](Cc2c[nH]c3ccccc23)C(=O)O)c1
19,140 to 142 °C,COc1cc(Nc2c(C#N)cnc3cc(C#CCCN4CCOCC4)c(OC)cc23)c(Cl)cc1Cl
20,121 °C,CNc1ccc(CN2CCN(C(c3ccccc3)c3ccccc3)CC2)cc1[N+](=O)[O-]
21,221 to 223 °C,CC(C)C1(C)N=C(c2nc3sccc3cc2C(=O)O)NC1=O (stereo not drawn)
22,110 to 112 °C,CC(=O)N1CCc2ccc(C(=O)CCC(=O)N3CCC(c4ccc(Cl)cc4)CC3)cc2CC1
23,127 °C,CC(=O)OCCNc1nnc(-c2ccccc2)cc1C

row,melting point,Structure (SMILES)
1,117 to 119 °C,COc1ccc2cc([C@H](C)C(=O)NNC(=O)CCCO[N+](=O)[O-])ccc2c1
2,232 °C,Cc1ccc(N2C(=O)c3ccccc3C2O)nn1 (stereo not drawn)
3,93 to 102 °C,COc1cn(-c2cc(-c3cnn(C)c3)ccc2F)nc(-c2ccnn2-c2ccccc2)c1=O
4,90 to 91 °C,COc1ccc(C(=O)c2ccccc2C=O)cc1
5,87 °C,CN(C)S(=O)(=O)n1ccc2cnccc21
6,209 to 211 °C,Cc1cc2c(c3ccc(=O)[nH]c13)OC(CCCl)C2 (stereo not drawn)
7,199 to 200 °C,CC1(C)OC(c2ccc(S(C)(=O)=O)c(F)c2)=C(c2ccc(N)cc2)C1=O
8,> 290 °C,COc1c(N2CC(N)C2)c(F)cc2c(=O)c(C(=O)O)cn(-c3cc(N)c(F)cc3F)c12
9,81 to 82 °C,O=C(Oc1c(F)c(F)c(F)c(F)c1F)[C@H]1CCC(=O)N1C(=O)OCc1ccccc1
10,87 °C,CCOC(=O)C1=C(N)N=C(OCC)C(C(=O)OCC)C1c1cccc(C(=O)OCC)c1 (stereo not drawn)
11,65.5 to 66.5 °C,CONS(=O)(=O)c1ccc(Cl)s1
12,69 to 71 °C,CCCN(C)C(C)CN1CCc2c(c(=O)oc3cc(OC)ccc23)C1 (stereo not drawn)
13,102 to 104 °C,ClC1=Nc2ccccc2Cn2cccc21
14,203 to 204 °C,Cc1cccc(C)c1NC(=O)Nc1sc2ccc(Cl)cc2c1-c1ccccc1Cl
15,62.5 to 63.5 °C,CCOC(=O)CSc1nnsc1-c1ccc(C(C)(C)C)cc1
16,235 to 236 °C,Cc1ccc(-c2csc(-c3cccc(C(=O)O)c3)n2)cc1C
17,70 to 72 °C,Nc1cn(-c2cccnc2)nc1Cl
18,222 to 224 °C,NC(=O)c1ccc(F)c2c1CC(NCCCc1c[nH]c3c(Cl)cccc13)CO2 (stereo not drawn)
19,116 to 119 °C,COc1ccccc1N1CCC(CNCC2COc3cccc(O)c3O2)CC1 (stereo not drawn)
20,69 to 71 °C,Cc1cc(C)cc(C(=O)N2CCN(C(=O)CNC3CN4CC3CC4Cc3ccccc3)C(c3ccc(Cl)c(Cl)c3)C2)c1 (stereo not drawn)
21,199 to 200 °C,COc1ccc(N(Cc2cnn(Cc3ccc(C(F)(F)F)cc3)c2)C(=O)C2CCCc3c(O)cccc32)cn1 (stereo not drawn)
22,210 to 212 °C,CC(C)c1cccc(C(C)C)c1NC(=O)[C@H](Cc1ccccc1)NC(=O)OCC1c2ccccc2-c2ccccc21
23,252 to 254 °C,Cc1nc(-c2cccnc2)c2nc(-c3ccccc3)cc-2[nH]1

row,Structure (SMILES),melting point
1,CC(=O)OC1CCC2(C)C(=CCC3C2CCC2(C)C(OC(C)=O)CCC32)C1 (stereo not drawn),163 to 165 °C
2,CC(Cl)(Cl)C(NC(=O)c1cccc(Cl)c1)NC(=N[N+](=O)[O-])Nc1cccnc1 (stereo not drawn),160 to 161 °C
3,CSc1c(Cl)nc(N2CCNCC2)nc1NC(C)C,147 °C
4,CCN(CC)CCc1ccc2cc(N)ccc2n1,93 to 94 °C
5,CCCS(=O)(=O)NC(=N[N+](=O)[O-])NCc1cnc(Cl)s1,105 to 107 °C
6,O=C(CBr)Nc1ccc(F)cc1C(=O)c1ccccc1Br,110 to 114 °C
